The source of these data is patent US20110212100A1, “METHODS FOR MODULATING DEVELOPMENT AND EXPANSION OF IL-17 EXPRESSING CELLS” (priority 2007, published 2011).

“And” between values parts separate entries of the source, which are not always exact repeats. Equal entries are not always repeated.

The test system of series [1] is CD4+ CD25− T cells. The series is described as follows: CD4+ T cell proliferation, CD25 upregulation, cytokine production and Th1/Th2/iTreg differentiation. The class given is cell-based, mouse. The protocol:
(§1) The dose-response of HF on CD4+ T cell proliferation, activation (i.e. CD25 upregulation) and differentiation to Th1, Th2 and Th17 lineages were evaluated. Purified murine naïve CD4+ CD25− T cells were activated using anti-CD3 (0.3 μg/ml) and anti-CD28 (0.5 μg/ml) antibodies and varying amounts of HF was added to each T cell culture condition (1.25 nM-40 nM). CD4+ T cell proliferation was monitored by CFSE dilution on day 3-post activation and CD25 expression was evaluated by FACS staining 2 days after activation. For T cell differentiation experiments, naïve T cells were activated as above in the presence of Th1 (IL-12 (20 ng/ml) plus anti-IL-4 (10 μg/ml)), Th2 (IL-4 (50 ng/ml) plus anti-IFNγ (0.5 mg/ml)) or Th17 (TGFβ (3 ng/ml) plus IL-6 (30 ng/ml)) polarizing conditions plus titrating amounts of HF (1.25 nM-40 nM) or MAZ1310 (40 nM). The percentage of Th17 cells, (IL-17^+ IFNγ^−) was evaluated on day 3 following activation, whereas the abundance of Th1 cells (IFNγ^+ IL-4) and Th2 cells (IL-4^+ IFNγ^−) was determined 5 days following activation. All cytokine expression was determined by intracellular staining following PMA+Ionomycin+Brefeldin A re-stimulation and all data was normalized to control (MAZ1310)-treated cells. […] Biol., vol. 80:1-8 (2006).
(§2) Cytokines, antibodies and T cell culture: Purified CD4^+ CD25^− T cells were activated in vitro as previously described (I. M. Djuretic et al., Nat Immunol 8, 145 (2007)) using 0.3 μg/ml hamster anti-mouse CD3 (clone 145-2C11) (ATCC—Manassas, Va.) and 0.5 μg/ml hamster anti-mouse CD28 (BD Pharmingen, San Jose, Calif.). Activated cell cultures were differentiated using the following combinations of cytokines and antibodies: iTreg=recombinant human TGFβ1 (3 ng/ml; R&D systems, Minneapolis, Minn.), Th17βTGFβ1 (3 ng/ml) plus recombinant mouse IL-6 (30 ng/ml, R&D systems). Th1 and Th2 differentiation was performed as previously described. (I. M. Djuretic et al., Nat Immunol 8, 145 (2007)). Human IL-2 supernatant (National Cancer Institute) was used in culture at 0.01 U/ml and was added at 48 hours-post activation when T cells were split into tissue culture wells lacking CD3 and CD28 antibodies, with the exception of Th17 cultures that were maintained in the absence of IL-2. All reagents were added at the time of T cell activation and again at 48-hours post activation unless indicated otherwise. For some experiments, purified CD4^+ CD25^− T cells, CD8^+ T cells or B cells were labeled with 1 μM CFSE (Invitrogen) prior to activation in accordance with manufacturers instructions.
Detection of cytokine production: Cytokines secreted into media supernatant were measured using the mouse Th1/Th2 cytometric bead array (CBA, BD Pharmingen) in accordance with manufacturers instructions. […]

For series [2], the system named is Th17 differentiation of CD4+ CD25− T cells. The series is described as follows: Th17 differentiation (IL-17+ IFNγ− cells) of T cells activated with TGFβ plus IL-6. In kind it is cell-based, mouse. The protocol: Low doses of halofuginone (HF) were tested to determine the ability of HF to enhance Treg differentiation, while suppressing Th17 differentiation. Nave. CD4+ T cells (CD4+ CD25−) were isolated from the spleen and peripheral lymph nodes of C57B/6 mice. T cells were then activated using anti-CD3 (0.3 μg/ml) and anti-CD28 (0.5 μg/ml) antibodies either in media alone (row 1, 4), TGFβ alone (3 ng/ml—row 2, 5) or TGFβ (3 ng/ml) plus IL-6 (30 ng/ml) (row 3, 6). […] T cells were cultured for 3 days and CD25 and Foxp3 expression (Treg marker genes) was determine by FACS staining and flow cytometric analyses. Simultaneously, T cells were harvested and re-stimulated for 4 hours using phorbol myristic acetate (PMA; 10 nM), Ionomycin (1 μM) and cytokine secretion was prevented using brefeldin A (20 μg/ml). Following stimulation, the production of IL-17 and IFNγ were determined by intracellular staining and analyzed via flow cytometry.
as §1, §2
Detection of cytokine production: Cytokines secreted into media supernatant were measured using the mouse Th1/Th2 cytometric bead array (CBA, BD Pharmingen) in accordance with manufacturers instructions.

Series [3] has as its system cultured fibroblasts. The series is described as follows: Non-specific effects on cultured fibroblasts. In kind it is cell-based. The protocol:
At concentrations over 80 nM, HF has a variety of non-specific effects on both T-cells and fibroblasts. […] At the recommended tolerated dose for chronic treatment (0.5 mg/day), plasma levels of HF were ˜0.5 ng/ml (1 nM). (de.Jonge et al., Eur J Cancer, vol. 42(12):1768-74 (2006)).

For series [4], the system named is mice. Conditions: IP, cited from earlier work.
In series [5] the test system is anti-CD3 activated human peripheral blood T cells. Conditions: cited from earlier work.

Take `O=C(CC1NCCCC1O)Cn1cnc2cc(Br)c(Cl)cc2c1=O` (racemic) [HF, 7-bromo-6-chloro-3-[3-(3-hydroxy-2-piperidinyl)-2-oxopropyl]-4(3H)-quinazolinone]: the “concentration inducing general inhibition of T and B cell activation, proliferation and effector function” value in series [1] (CD4+ T cell, CD8+ T cell and B220+ B cell, listed as halofuginone) was 20 to 40 nM. In series [1] (low concentrations of HF (1-10 nM)), the “effect on T cell proliferation, CD25 upregulation or production of IL-2, TNF or IFNγ, in words” value is listed as “did not affect”. The “effect on Th1, Th2 or iTreg differentiation (IFNγ, IL-4 or Foxp3 expression), in words” value in series [1] (low-dose HF) is recorded as “failed to modulate”. The “time of addition giving most pronounced inhibition of IL-17 expression, in words” value in series [2] (10 nM HF added at indicated times after activation) is on record as “most pronounced when HF was added during a 12-hour window at the start of the culture period”. Besides, the “effect on Il17 and Il17f mRNA expression, in words” value in series [2] (10 nM HF, 4 days, Th17 cytokine conditions) was “impaired expression of both Il17 and Il17f mRNA”. Further, the “IL-17 expression in T cells lacking Foxp3, in words” value in series [2] (10 nM HF, Foxp3 KO naïve CD4+ T cells, TGFβ plus IL-6) was “strongly repressed IL-17 expression”. The “Th17 differentiation of T cells expressing STAT3C, in words” value in series [2] (10 nM HF, STAT3C-GFP+ cells) is “remained capable of differentiating into Th17 cells”. In addition, the “Th17 differentiation of cells expressing YFP or no transgene, in words” value in series [2] (5-10 nM HF, TAT-Cre treated T cells) was “strongly impaired”. Further, the “fold lower doses for effects on Th17 differentiation versus general inhibition of T-cell proliferation and Th1/Th2 differentiation” value in series [2] (FIG. 7) was 5- to 10 fold and ~10 fold. The “Th17 differentiation in T cells transduced with RORγt-expressing versus empty retroviruses, in words” value in series [2] (MIG.RORγt vs MIG) is “inhibited Th17 differentiation as effectively”. For the same compound, the IC50 in series [2] (Mus musculus, T-cell, in vitro, read-out: concentration for 50% inhibition of Th17 cell development) was ~3 nM. The “concentration window of specific inhibition of Th17 differentiation” value in series [2] (exogenously added HF, TGFbeta in the presence of IL-6) lay within 2 to 30 nM. Moreover, in series [3], the “concentration inhibiting protein synthesis and cell proliferation in fibroblast culture” value is on record as “over 80 nM”; the “signaling downstream of mTOR in fibroblasts, in words” value is “did not inhibit signaling downstream of mTOR”. Also, in series [3] (doses up to 500 nM over 5 days), the “death of cultured fibroblasts, in words” value was “does not, however, cause death”. In addition, in series [4] (1-5 μg/mouse (Xavier et al.)), the “radiation induced fibrosis, in words” value was “prevented radiation induced fibrosis but not normal healing of irradiated tissue”. The “toxic effect in mice, in words” value in series [4] (1-5 μg/mouse) is “without evident toxic effect”. For the same compound, the “NFkB activation and T-cell secretion of cytokines, in words” value in series [5] (80 nM HF, crude preparation of primary T-cells (Leiba et al.)) is “broadly suppress NFkB activation and T-cell secretion of cytokines”. The IC50 in series [5] (Lieba et al., read-out: concentration for 50% inhibition of cytokine secretion, NF-kB activation and p38 phosphorylation) was 20 to 40 nM.
